Key:
[1] = test system: E. coli ΔtolC PrecA-GFP SOS reporter; assay: Cell-based SOS reporter assay; conditions: ciprofloxacin 128 ng/mL, 2 hours, ΔtolC reporter strain
FlAsH-LexAPa with RecA* = FlAsH-LexAPa with RecA* (Pseudomonas aeruginosa, UniProt P37452); assay: Pilot screen of Microsource Spectrum library with FlAsH-LexAPa; format: biochemical, P. aeruginosa; conditions: fixed concentration of 16 μM, single endpoint
FlAsH-LexAPa with RecA*, sequence (P37452 81-204): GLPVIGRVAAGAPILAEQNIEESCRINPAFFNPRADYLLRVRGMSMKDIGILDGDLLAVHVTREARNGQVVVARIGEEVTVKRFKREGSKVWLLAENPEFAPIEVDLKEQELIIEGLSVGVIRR

Compound	Increase in GFP fluorescence over the unstressed control [1]	Hit in pilot screen (FlAsH-LexAPa with RecA*)
O=C(O)c1cn(C2CC2)c2cc(N3CCNCC3)c(F)cc2c1=O [ciprofloxacin]	~ 50 fold	–
Cc1ccc(C(=O)Nc2ccc(S(=O)(=O)O)c3cc(S(=O)(=O)O)cc(S(=O)(=O)O)c23)cc1NC(=O)c1cccc(NC(=O)Nc2cccc(C(=O)Nc3cc(C(=O)Nc4ccc(S(=O)(=O)O)c5cc(S(=O)(=O)O)cc(S(=O)(=O)O)c45)ccc3C)c2)c1 [suramin]	–	identified in this pilot screen

Reference: article PMC5893282 (ACS infectious diseases, 2018)
